Measured values from PubChem BioAssay (NCI).
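Results reflect a 48-hour exposure of cells in 96-well plates to compound at five concentrations. GI50 is the concentration that inhibits growth by half. At the TGI there is no net growth.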

Tests used:
Experiment in all cases: growth of human tumour cells (NCI), 48 h
[1] = system: 786-0 renal
[2] = system: A498 renal
[3] = system: A549 NSCLC
[4] = system: ACHN renal
[5] = system: BT-549 breast
[6] = system: CAKI-1 renal
[7] = system: CCRF-CEM leukemia
[8] = system: COLO 205 colon
[9] = system: DU-145 prostate
[10] = system: EKVX NSCLC
[11] = system: HCC-2998 colon
[12] = system: HCT-116 colon
[13] = system: HCT-15 colon
[14] = system: HL-60(TB) leukemia
[15] = system: HOP-62 NSCLC
[16] = system: HOP-92 NSCLC
[17] = system: HS 578T breast
[18] = system: HT29 colon
[19] = system: IGROV1 ovarian
[20] = system: K-562 leukemia
[21] = system: KM12 colon
[22] = system: LOX IMVI melanoma
[23] = system: M14 melanoma
[24] = system: MALME-3M melanoma
[25] = system: MCF7 breast
[26] = system: MDA-MB-231 breast
[27] = system: MDA-MB-435
[28] = system: MOLT-4 leukemia
[29] = system: NCI-H226 lung
[30] = system: NCI-H23 lung
[31] = system: NCI-H460 lung
[32] = system: NCI-H522 lung
[33] = system: NCI/ADR-RES ovarian
[34] = system: OVCAR-3 ovarian
[35] = system: OVCAR-4 ovarian
[36] = system: OVCAR-5 ovarian
[37] = system: OVCAR-8 ovarian
[38] = system: PC-3 prostate
[39] = system: RPMI-8226 leukemia
[40] = system: RXF 393 renal
[41] = system: SF-268 CNS
[42] = system: SF-295 CNS
[43] = system: SF-539 CNS
[44] = system: SK-MEL-2 melanoma
[45] = system: SK-MEL-28 melanoma
[46] = system: SK-MEL-5 melanoma
[47] = system: SK-OV-3 ovarian
[48] = system: SN12C renal
[49] = system: SNB-19 CNS
[50] = system: SNB-75 CNS
[51] = system: SR leukemia
[52] = system: SW-620 colon
[53] = system: T-47D breast
[54] = system: TK-10 renal
[55] = system: U251 CNS
[56] = system: UACC-257 melanoma
[57] = system: UACC-62 melanoma
[58] = system: UO-31 renal

In the case of Cn1cnc([N+](=O)[O-])c1Sc1ncnc2c1ncn2C1OC(CO)C(O)C1O (stereo unspecified), the GI50 [1] is reported as 5.35 µM, the TGI [1] is reported as over 100 µM and the GI50 [2] is reported as 2.36 µM. It also gave a TGI [2] of over 100 µM, a GI50 [3] of 29.3 µM and a TGI [3] of over 100 µM. The GI50 [4] was 25.7 µM, the TGI [4] was over 100 µM and the GI50 [5] was over 100 µM. For the same compound, the TGI [5] was over 100 µM, the GI50 [6] was 3.53 µM and the TGI [6] was over 100 µM. The GI50 [7] was 21.7 µM, the TGI [7] was over 100 µM and the GI50 [8] was 15 µM. The TGI [8] was 61 µM, the GI50 [9] was 1.87 µM and the TGI [9] was over 100 µM. It also gave a GI50 [10] of 86.2 µM, a TGI [10] of over 100 µM and a GI50 [11] of 5.02 µM. The TGI [11] was over 100 µM, the GI50 [12] was 4.62 µM and the TGI [12] was over 100 µM. It also gave a GI50 [13] of 11.6 µM, a TGI [13] of over 100 µM and a GI50 [14] of 22.6 µM. The TGI [14] was over 100 µM, the GI50 [15] was 2 µM and the TGI [15] was over 100 µM. The GI50 [16] was 31.3 µM, the TGI [16] was over 100 µM and the GI50 [17] was 27.8 µM. For the same compound, the TGI [17] was over 100 µM, the GI50 [18] was 7.3 µM and the TGI [18] was over 100 µM. The GI50 [19] was 11.4 µM, the TGI [19] was over 100 µM and the GI50 [20] was 3.35 µM. For the same compound, the TGI [20] was over 100 µM, the GI50 [21] was 6.34 µM and the TGI [21] was over 100 µM. For the same compound, the GI50 [22] was 1.71 µM, the TGI [22] was over 100 µM and the GI50 [23] was 2.29 µM. For the same compound, the TGI [23] was over 100 µM, the GI50 [24] was 46.3 µM and the TGI [24] was over 100 µM. It also gave a GI50 [25] of 1.79 µM, a TGI [25] of over 100 µM and a GI50 [26] of 9.62 µM. It also gave a TGI [26] of over 100 µM, a GI50 [27] of 3.6 µM and a TGI [27] of over 100 µM. For the same compound, the GI50 [28] was 8.32 µM, the TGI [28] was 64.5 µM and the GI50 [29] was 8.04 µM. For the same compound, the TGI [29] was over 100 µM, the GI50 [30] was 4.8 µM and the TGI [30] was over 100 µM. It also gave a GI50 [31] of 5.72 µM, a TGI [31] of over 100 µM and a GI50 [32] of 9.62 µM. The TGI [32] was over 100 µM, the GI50 [33] was 4.84 µM and the TGI [33] was over 100 µM. For the same compound, the GI50 [34] was 3.93 µM, the TGI [34] was over 100 µM and the GI50 [35] was 45.3 µM. The TGI [35] was over 100 µM, the GI50 [36] was 42 µM and the TGI [36] was over 100 µM. It also gave a GI50 [37] of 6.19 µM, a TGI [37] of over 100 µM and a GI50 [38] of 8.66 µM. The TGI [38] was over 100 µM, the GI50 [39] was 2.93 µM and the TGI [39] was over 100 µM. The GI50 [40] was 24.6 µM, the TGI [40] was over 100 µM and the GI50 [41] was 18.4 µM. It also gave a TGI [41] of over 100 µM, a GI50 [42] of 2.95 µM and a TGI [42] of over 100 µM. For the same compound, the GI50 [43] was 4.11 µM, the TGI [43] was over 100 µM and the GI50 [44] was 8.9 µM. For the same compound, the TGI [44] was over 100 µM, the GI50 [45] was 72.2 µM and the TGI [45] was over 100 µM. The GI50 [46] was 11.4 µM, the TGI [46] was over 100 µM and the GI50 [47] was 0.564 µM. For the same compound, the TGI [47] was over 100 µM, the GI50 [48] was 41.9 µM and the TGI [48] was over 100 µM. For the same compound, the GI50 [49] was over 100 µM, the TGI [49] was over 100 µM and the GI50 [50] was 27.7 µM. It also gave a TGI [50] of over 100 µM, a GI50 [51] of 5.2 µM and a TGI [51] of over 100 µM. The GI50 [52] was 32.6 µM, the TGI [52] was over 100 µM and the GI50 [53] was 5.01 µM. It also gave a TGI [53] of over 100 µM, a GI50 [54] of 4.58 µM and a TGI [54] of over 100 µM. The GI50 [55] was 8.79 µM, the TGI [55] was over 100 µM and the GI50 [56] was 24.5 µM. It also gave a TGI [56] of over 100 µM, a GI50 [57] of 5.98 µM and a TGI [57] of over 100 µM. For the same compound, the GI50 [58] was 7.1 µM and the TGI [58] was over 100 µM.
